{"source": "ChEMBL document CHEMBL1152906", "about": "“Synthesis and evaluation of carbamate prodrugs of SQ109 as antituberculosis agents” (Bioorg Med Chem Lett, 2009)", "key": {"[1]": {"assay": "Stability of compound in Sorensens buffer at pH 7.4", "assay_type": "physicochemical"}, "[2]": {"assay": "Tmax in rat at 13 mg/kg, po", "assay_type": "ADME, organism-based", "parameters": "dose 13 mg/kg, route oral", "settings": "in vivo"}, "[3]": {"assay": "Cmax in rat at 13 mg/kg, po", "assay_type": "ADME, organism-based", "parameters": "dose 13 mg/kg, route oral", "settings": "in vivo"}, "[4]": {"assay": "Oral bioavailability in rat at 13 mg/kg", "assay_type": "ADME, organism-based", "settings": "in vivo"}, "[5]": {"assay": "Half life in rat at 13 mg/kg, po", "assay_type": "ADME, organism-based", "parameters": "dose 13 mg/kg, route oral", "settings": "in vivo"}, "[6]": {"assay": "Clearance in rat at 13 mg/kg, po", "assay_type": "ADME, organism-based", "parameters": "dose 13 mg/kg, route oral", "settings": "in vivo"}, "[7]": {"assay": "Oral bioavailability in dog", "assay_type": "ADME, organism-based, Canis lupus familiaris", "settings": "in vivo"}, "[8]": {"assay": "Oral bioavailability in rat", "assay_type": "ADME, organism-based", "settings": "in vivo"}, "[9]": {"assay": "AUC(0 to 24 hrs) in rat at 1.5 mg/kg, iv", "assay_type": "ADME, organism-based", "parameters": "time < 24 hr, dose 1.5 mg/kg, route intravenous", "settings": "plasma"}, "[10]": {"assay": "Cmax in rat at 1.5 mg/kg, iv", "assay_type": "ADME, organism-based", "parameters": "dose 1.5 mg/kg, route intravenous", "settings": "in vivo"}, "[11]": {"assay": "Clearance in rat at 1.5 mg/kg, iv", "assay_type": "ADME, organism-based", "parameters": "dose 1.5 mg/kg, route intravenous", "settings": "in vivo"}, "[12]": {"assay": "AUC(0 to 24 hrs) in rat at 13 mg/kg, po", "assay_type": "ADME, organism-based", "parameters": "time < 24 hr, dose 13 mg/kg, route oral", "settings": "plasma"}, "[13]": {"assay": "Half life in rat at 1.5 mg/kg, iv", "assay_type": "ADME, organism-based", "parameters": "dose 1.5 mg/kg, route intravenous", "settings": "in vivo"}, "[14]": {"assay": "Ratio of drug level in rat lung to plasma assessed as N-Geranyl-N0-(2-adamantyl)ethane-1,2-diamine level at 13 mg/kg, po after 4 hrs", "assay_type": "ADME, organism-based", "parameters": "dose 13 mg/kg, route oral", "settings": "other tissue"}, "Rattus norvegicus [15]": {"tested_on": "Rattus norvegicus", "assay": "Clearance in rat assessed as N-Geranyl-N0-(2-adamantyl)ethane-1,2-diamine level at 13 mg/kg, po", "assay_type": "ADME, organism-based", "parameters": "dose 13 mg/kg, route oral", "settings": "in vivo"}, "Rattus norvegicus [16]": {"tested_on": "Rattus norvegicus", "assay": "Half life in rat assessed as N-Geranyl-N0-(2-adamantyl)ethane-1,2-diamine level at 13 mg/kg, po", "assay_type": "ADME, organism-based", "parameters": "dose 13 mg/kg, route oral", "settings": "in vivo"}, "Rattus norvegicus [17]": {"tested_on": "Rattus norvegicus", "assay": "Oral bioavailability in rat assessed as N-Geranyl-N0-(2-adamantyl)ethane-1,2-diamine level at 13 mg/kg", "assay_type": "ADME, organism-based", "settings": "in vivo"}, "Rattus norvegicus [18]": {"tested_on": "Rattus norvegicus", "assay": "Cmax in rat assessed as N-Geranyl-N0-(2-adamantyl)ethane-1,2-diamine level at 13 mg/kg, po", "assay_type": "ADME, organism-based", "parameters": "dose 13 mg/kg, route oral", "settings": "in vivo"}, "Rattus norvegicus [19]": {"tested_on": "Rattus norvegicus", "assay": "AUC(0 to 24 hrs) in rat assessed as N-Geranyl-N0-(2-adamantyl)ethane-1,2-diamine level at 13 mg/kg, po", "assay_type": "ADME, organism-based, Plasma", "parameters": "time < 24 hr, dose 13 mg/kg, route oral", "settings": "in vivo"}, "Lung [20]": {"tested_on": "Lung", "assay": "Drug uptake in rat lung assessed as N-Geranyl-N0-(2-adamantyl)ethane-1,2-diamine level at 13 mg/kg, po after 10 hrs", "assay_type": "ADME, organism-based", "parameters": "dose 13 mg/kg, route oral", "settings": "in vivo"}, "Lung [21]": {"tested_on": "Lung", "assay": "Drug uptake in rat lung assessed as N-Geranyl-N0-(2-adamantyl)ethane-1,2-diamine level at 13 mg/kg, po after 4 hrs", "assay_type": "ADME, organism-based", "parameters": "dose 13 mg/kg, route oral", "settings": "in vivo"}, "Rattus norvegicus [22]": {"tested_on": "Rattus norvegicus", "assay": "Tmax in rat assessed as N-Geranyl-N0-(2-adamantyl)ethane-1,2-diamine level at 13 mg/kg, po", "assay_type": "ADME, organism-based", "parameters": "dose 13 mg/kg, route oral", "settings": "in vivo"}}, "note": "Where “and” joins values, the source holds several entries; their conditions need not be identical. Identical values can stand only once."}
{"smiles": "CC(C)=CCC/C(C)=C/CN(CCNC1C2CC3CC(C2)CC1C3)C(=O)OC(C)OC(=O)C(C)C.O=C(O)/C=C\\C(=O)O", "note": "(centres undefined)", "values": [{"measurement": "Stability", "setting": "[1]", "value": "Unstable"}]}
{"smiles": "CC(C)=CCC/C(C)=C/CNCCNC1C2CC3CC(C2)CC1C3", "note": "(centres undefined) [SQ109]", "values": [{"measurement": "Tmax", "setting": "[2]", "value": 0.75, "unit": "h"}, {"measurement": "Cmax", "setting": "[3]", "value": 499, "unit": "ng/mL"}, {"measurement": "bioavailability", "setting": "[4]", "value": 21.9, "unit": "%"}, {"measurement": "half-life", "setting": "[5]", "value": 3.71, "unit": "h"}, {"measurement": "CL/F", "setting": "[6]", "value": 82.3, "unit": "mL/min/kg"}, {"measurement": "bioavailability", "setting": "[7]", "value": 3.8, "unit": "%"}, {"measurement": "bioavailability", "setting": "[8]", "value": 12, "unit": "%"}, {"measurement": "AUC(0-t) at 24 h", "setting": "[9]", "value": 1230, "unit": "ng·h/mL"}, {"measurement": "Cmax", "setting": "[10]", "value": 889, "unit": "ng/mL"}, {"measurement": "clearance", "setting": "[11]", "value": 17.5, "unit": "mL/min/kg"}, {"measurement": "AUC(0-t) at 24 h", "setting": "[12]", "value": 2330, "unit": "ng·h/mL"}, {"measurement": "half-life", "setting": "[13]", "value": 5.06, "unit": "h"}]}
{"smiles": "CC(C)=CCC/C(C)=C/CN(CCNC1C2CC3CC(C2)CC1C3)C(=O)OCOC(=O)C(C)C.O=C(O)/C=C\\C(=O)O", "note": "(centres undefined)", "values": [{"measurement": "fold change (FC)", "setting": "[14]", "value": "76 and 60"}, {"measurement": "CL", "setting": "Rattus norvegicus [15]", "value": 41.5, "unit": "mL/min/kg"}, {"measurement": "t1/2", "setting": "Rattus norvegicus [16]", "value": 4.58, "unit": "h"}, {"measurement": "F", "setting": "Rattus norvegicus [17]", "value": 91.4, "unit": "%"}, {"measurement": "Cmax", "setting": "Rattus norvegicus [18]", "value": 1309.3, "unit": "ng/mL"}, {"measurement": "AUC", "setting": "Rattus norvegicus [19]", "value": 5441.2, "unit": "ng·h/mL"}, {"measurement": "Drug uptake", "setting": "Lung [20]", "value": 29.03, "unit": "µg/g"}, {"measurement": "Drug uptake", "setting": "Lung [21]", "value": 35.08, "unit": "µg/g"}, {"measurement": "Tmax", "setting": "Rattus norvegicus [22]", "value": 1, "unit": "h"}]}
{"smiles": "CC(C)=CCC/C(C)=C/CN(CCNC1C2CC3CC(C2)CC1C3)C(=O)OC(C)OC(=O)C(C)(C)C.O=C(O)/C=C\\C(=O)O", "note": "(centres undefined)", "values": [{"measurement": "Stability", "setting": "[1]", "value": "Unstable"}]}
{"smiles": "CC(C)=CCC/C(C)=C/CN(CCNC1C2CC3CC(C2)CC1C3)C(=O)OCOC(=O)C(C)(C)C.O=C(O)/C=C\\C(=O)O", "note": "(centres undefined)", "values": [{"measurement": "CL", "setting": "Rattus norvegicus [15]", "value": 50, "unit": "mL/min/kg"}, {"measurement": "t1/2", "setting": "Rattus norvegicus [16]", "value": 5.6, "unit": "h"}, {"measurement": "F", "setting": "Rattus norvegicus [17]", "value": 72.6, "unit": "%"}, {"measurement": "Cmax", "setting": "Rattus norvegicus [18]", "value": 585.6, "unit": "ng/mL"}, {"measurement": "AUC", "setting": "Rattus norvegicus [19]", "value": 4224.8, "unit": "ng·h/mL"}, {"measurement": "Tmax", "setting": "Rattus norvegicus [22]", "value": 1.4, "unit": "h"}]}
